Measurements published in patent US20210100777A1, “HEAT SHOCK PROTEIN (HSP) INHIBITION AND MONITORING EFFECTIVENESS THEREOF” (H. LEE MOFFITT CANCER CENTER AND RESEARCH INSTITUTE, INC., priority 2013, published 2021).

Assays:
HSPs in 8226/LR5 cells [1] = experiment: DI-MRM relative quantification of HSPs after 17-DMAG (Example 2); format: cell-based, human; settings: for CDC37 Fold Change, DI-MRM / HS90A Fold Change, DI-MRM / HS90B Fold Change, DI-MRM / HSP7C Fold Change, DI-MRM / HSP7E Fold Change, DI-MRM / HSP71 Fold Change, DI-MRM / HSP74 Fold Change, DI-MRM / HSPA5 Fold Change, DI-MRM / HSP90α Fold Change, DI-MRM: 8226/LR5, 50 nM, 24 hrs vs. control
Protocol: Synthesis and DI MRM of Standard Peptides. Standard peptides were synthesized and characterized as described previously (Remily-Wood et al., Proteomics Clin. Appl. 5:383-96 (2011)). An automated chip-based nanoelectrospray ion source, (NanoMate100, Advion BioSciences, Ithaca, N.Y.), was mounted on a triple quadrupole mass spectrometer (TSQ Vantage, Thermo, San Jose, Calif.). […] (SEQ ID NO:17) were diluted to 1 μM in 50% aqueous ACN with 0.1% formic acid. For synthetic peptide infusion, the spray voltage was tuned between 1.5 and 1.9 kV for stable ion signal. The gas pressure was set to 0.3 psi. Data were acquired at 20 ms per transition for 2 minutes using m/z 0.002 scan widths. The quadrupole resolution values were modulated from 0.2 to 0.7. […]
(§1) Cell Culture, Lysis, and HSP Sample Preparation for Mass Spectrometry. RPMI-8226 and 8226/LR5 cells were maintained as previously described (Bellamy et al., Cancer Res. 51:995-1002 (1991); Remily-Wood et al., Proteomics Clin. Appl. 5:383-96 (2011)). The heat shock protein 90 inhibitor, 17-desmethoxy-17-N,N-dimethylaminoethylamino-geldanamycin (17-DMAG), was dissolved in DMSO (100 μM stock). Based on prior IC50 measurements, the RPMI-8226 cells were treated with 100 nM 17-DMAG for 24 hours, and 8226/LR5 cells were treated with 50 nM 17-DMAG. Cells (n=10^6) were lysed using in aqueous 100 mM ammonium bicarbonate containing 8M urea for protein denaturation. Protein concentrations were measured by Bradford assays; consistent aliquots of total protein (380 ng) were injected for LC-MRM, and the same solutions were used for DI-MRM. Digestion, addition of SIS peptides, and mass spectrometry sample preparation were performed as described for standard proteins.
Calculation of Correction Factors to Account for Interference in DI MRM. […] To evaluate the ability to eliminate these contributions, correction factors were calculated based on LC-MRM data using the following set of equations (Equations 1 and 2): […]

HSPs in 8226/LR5 cells [2] = experiment: LC-MRM relative quantification of HSPs after 17-DMAG (Example 2); format: cell-based, human; settings: for CDC37 Fold Change, LC-MRM / HS90A Fold Change, LC-MRM / HS90B Fold Change, LC-MRM / HSP7C Fold Change, LC-MRM / HSP7E Fold Change, LC-MRM / HSP71 Fold Change, LC-MRM / HSP74 Fold Change, LC-MRM / HSPA5 Fold Change, LC-MRM / HSP90α Fold Change, LC-MRM: 8226/LR5, 50 nM; for CDC37 Fold Change, LC-MRM / HS90A Fold Change, LC-MRM / HS90B Fold Change, LC-MRM / HSP7C Fold Change, LC-MRM / HSP7E Fold Change, LC-MRM / HSP71 Fold Change, LC-MRM / HSP74 Fold Change, LC-MRM / HSPA5 Fold Change, LC-MRM: 24 hrs after treatment vs. control; for HSP90α Fold Change, LC-MRM: 24 hrs vs. control
Protocol: as §1
(§2) […] Quantification. For HSP proteins in cell lysate, 184 transitions from 32 peptides (see Table 2) were monitored as previously described (Remily-Wood et al., Proteomics Clin. Appl. 5:383-96 (2011)). Both relative and absolute quantification were calculated from the sum of the peak areas for all detected transitions using Skyline (MacLean et al., Bioinformatics 26:966-8 (2010)) or the combination of MRMer (Martin et al., Mol. Cell Proteomics 7:2270-8 (2008)) and Post-MRMer (http://proteome.moffitt. org).

HSPs in RPMI-8226 cells = experiment: as above; format: cell-based, human; settings: for CDC37 Fold Change, LC-MRM / HS90A Fold Change, LC-MRM / HS90B Fold Change, LC-MRM / HSP7C Fold Change, LC-MRM / HSP7E Fold Change, LC-MRM / HSP71 Fold Change, LC-MRM / HSP74 Fold Change, LC-MRM / HSPA5 Fold Change, LC-MRM / HSP90α Fold Change, LC-MRM: RPMI-8226, 100 nM; for CDC37 Fold Change, LC-MRM / HS90A Fold Change, LC-MRM / HS90B Fold Change, LC-MRM / HSP7C Fold Change, LC-MRM / HSP7E Fold Change, LC-MRM / HSP71 Fold Change, LC-MRM / HSP74 Fold Change, LC-MRM / HSPA5 Fold Change, LC-MRM: 24 hrs after treatment vs. control; for HSP90α Fold Change, LC-MRM: 24 hrs vs. control
Protocol: as §1, §2

HSP70 isoform 1 (HSP71) = experiment: LC-MRM pharmacodynamic assay of HSP90 inhibition in melanoma cell lines; format: cell-based; settings: 300 nM, 0-48 hours; naïve, intrinsically resistant and acquired resistant cell lines
Protocol: Proteomics Sample Preparation. Proteins were extracted as described for Western Blotting and processed as described in (Remily-Wood et al., Proteomics Clin. App. 5:383-96 (2011)).
Liquid chromatography, multiple reaction monitoring mass (LC-MRM) spectrometry (LC MRM) analysis. LC-MRM was performed as described in (Remily-Wood et al., Proteomics Clin. App. 5:383-96 (2011)). Protein expression was determined using the ratio of peak area of the native peptide to corresponding internal standard; normalization of tissue results was performed using GAPDH to control for cellularity (Table 9). Data were then normalized to the pretreatment (cell lines) or vehicle controls (tissue) and plotted to show the changes in expression after drug treatment.

[3] = system: BIM, Mcl-1 and BMF mRNA in vemurafenib-resistant melanoma cell lines; experiment: Quantitative real-time PCR; settings: 300 nM, 48 hours
[4] = all LC-MRM transitions, interference-corrected
[5] = noise corrected, only transitions below 40% interference
[6] = y3-y5 (DI-MRM Interference-Corrected)
[7] = y3-y6 (DI-MRM Interference-Corrected)

## CO[C@H]1/C=C\C=C(/C)C(=O)NC2=CC(=O)C(NCCN(C)C)=C(C[C@@H](C)C[C@H](OC)[C@H](O)[C@@H](C)/C=C(\C)[C@@H]1OC(N)=O)C2=O [17-DMAG, 17-Dimethylaminoethylamino-17-demethoxygeldanamycin]
HSPs in 8226/LR5 cells [1]; [4]
  CDC37 Fold Change, DI-MRM: 1.24
  HS90A Fold Change, DI-MRM: 1.12
  HS90B Fold Change, DI-MRM: 1.23
  HSP7C Fold Change, DI-MRM: 0.94
  HSP7E Fold Change, DI-MRM: 0.93
  HSP71 Fold Change, DI-MRM: 5.50
  HSP74 Fold Change, DI-MRM: 1.33
  HSPA5 Fold Change, DI-MRM: 0.86
HSPs in 8226/LR5 cells [1]; [5]
  CDC37 Fold Change, DI-MRM: 1.35
  HS90A Fold Change, DI-MRM: 1.14
  HS90B Fold Change, DI-MRM: 1.23
  HSP7C Fold Change, DI-MRM: 1.14
  HSP7E Fold Change, DI-MRM: 1.05
  HSP71 Fold Change, DI-MRM: 5.51
  HSP74 Fold Change, DI-MRM: 1.41
  HSPA5 Fold Change, DI-MRM: 0.90
HSPs in 8226/LR5 cells [1]; y3 (Least Interference)
  HSP90α Fold Change, DI-MRM: 0.76
HSPs in 8226/LR5 cells [1]; [6]
  HSP90α Fold Change, DI-MRM: 1.14
HSPs in 8226/LR5 cells [1]; y3-y5 (Selected Transitions)
  HSP90α Fold Change, DI-MRM: 1.13
HSPs in 8226/LR5 cells [1]; [7]
  HSP90α Fold Change, DI-MRM: 1.12
HSPs in 8226/LR5 cells [1]; 8226/LR5, 24 hours after treatment
  changes in expression of HSP90α, DI-MRM: 1.1 fold
HSPs in 8226/LR5 cells [2]; Table 6
  CDC37 Fold Change, LC-MRM: 1.08
  HS90A Fold Change, LC-MRM: 1.23
  HS90B Fold Change, LC-MRM: 1.28
  HSP7C Fold Change, LC-MRM: 1.56
  HSP7E Fold Change, LC-MRM: 0.99
  HSP71 Fold Change, LC-MRM: 3.54
  HSP74 Fold Change, LC-MRM: 1.34
  HSPA5 Fold Change, LC-MRM: 1.53
HSPs in 8226/LR5 cells [2]; Table 7
  CDC37 Fold Change, LC-MRM: 1.08
  HS90A Fold Change, LC-MRM: 1.23
  HS90B Fold Change, LC-MRM: 1.28
  HSP7C Fold Change, LC-MRM: 1.56
  HSP7E Fold Change, LC-MRM: 0.99
  HSP71 Fold Change, LC-MRM: 3.54
  HSP74 Fold Change, LC-MRM: 1.34
  HSPA5 Fold Change, LC-MRM: 1.53
HSPs in 8226/LR5 cells [2]; y3 (Least Interference)
  HSP90α Fold Change, LC-MRM: 1.26
HSPs in 8226/LR5 cells [2]; [6]
  HSP90α Fold Change, LC-MRM: 1.23
HSPs in 8226/LR5 cells [2]; y3-y5 (Selected Transitions)
  HSP90α Fold Change, LC-MRM: 1.23
HSPs in 8226/LR5 cells [2]; [7]
  HSP90α Fold Change, LC-MRM: 1.23
HSPs in 8226/LR5 cells [2]; 8226/LR5, 24 hours after treatment, same for y3-y6, y3-y5 or just y3
  HSP90α expression increase, LC-MRM: ~1.2 fold
HSPs in RPMI-8226 cells; Table 6
  CDC37 Fold Change, LC-MRM: 1.33
  HS90A Fold Change, LC-MRM: 2.21
  HS90B Fold Change, LC-MRM: 1.53
  HSP7C Fold Change, LC-MRM: 2.28
  HSP7E Fold Change, LC-MRM: 1.23
  HSP71 Fold Change, LC-MRM: 4.67
  HSP74 Fold Change, LC-MRM: 1.45
  HSPA5 Fold Change, LC-MRM: 2.66
HSPs in RPMI-8226 cells; Table 7
  CDC37 Fold Change, LC-MRM: 1.33
  HS90A Fold Change, LC-MRM: 2.21
  HS90B Fold Change, LC-MRM: 1.53
  HSP7C Fold Change, LC-MRM: 2.28
  HSP7E Fold Change, LC-MRM: 1.23
  HSP71 Fold Change, LC-MRM: 4.67
  HSP74 Fold Change, LC-MRM: 1.45
  HSPA5 Fold Change, LC-MRM: 2.66
HSPs in RPMI-8226 cells; y3 (Least Interference)
  HSP90α Fold Change, LC-MRM: 2.19
HSPs in RPMI-8226 cells; [6]
  HSP90α Fold Change, LC-MRM: 2.21
HSPs in RPMI-8226 cells; y3-y5 (Selected Transitions)
  HSP90α Fold Change, LC-MRM: 2.21
HSPs in RPMI-8226 cells; [7]
  HSP90α Fold Change, LC-MRM: 2.21
HSPs in RPMI-8226 cells; RPMI-8226, 24 hours after treatment, same for y3-y6, y3-y5 or just y3
  HSP90α expression increase, LC-MRM: approximately 2.2 fold

## CC[C@@H](C)Nc1cc(C(=O)N[C@@H]2C[C@H]3CC[C@@H](C2)N3c2ccc(C(=O)C3CC3)cn2)c(C)cc1C(N)=O [XL888, 5-((R)-sec-butylamino)-N1-((1R,3s,5S)-8-(5-(cyclopropanecarbonyl)pyridin-2-yl)-8-azabicyclo[3.2.1]octan-3-yl)-2-methylterephthalamide]
HSP70 isoform 1 (HSP71)
  expression of HSP70 isoform 1 (HSP71): robust time-dependent increases
[3]
  BIM mRNA expression: increase in BIM mRNA
  Mcl-1 expression at the mRNA level: blocked Mcl-1 expression at the mRNA level
[3]; M229R and 1205LuR
  BMF mRNA expression: only weakly induced BMF mRNA expression
